From paper PMC11557435, “Identification of novel SARS-CoV-2 3CLpro inhibitors by molecular docking, in vitro assays, molecular dynamics simulations and DFT analyses” (Frontiers in Pharmacology, 2024) come the findings set out here.

For the assay, the target named is SARS-CoV-2 3CLpro (Severe acute respiratory syndrome coronavirus 2, UniProt P0DTD1). The assay is described as follows: biochemical. Particulars: for inhibition at 50 µM: single point, 50 μM compound.

As to `CC[C@H](C)[C@H](NC(=O)c1ccc2nc(-n3cccc3)sc2c1)C(=O)NCc1cccnc1` [Compound 5], the IC50 is 8.5 ± 0.26 µM and 50 µM produced 84% inhibition.

In turn, `CCC(CC)C(=O)Nc1cccc(C(=O)Nc2ccccc2C(=O)Nc2ccc(OC)cc2)c1` [Compound 43] yielded an IC50 of 6.99 ± 0.62 µM and an inhibition at 50 µM of 84.8%.

On to `CC[C@H](C)N(Cc1cccc(OC)c1)C[C@@H](O)COc1ccc(OC)cc1` [Compound 1], for which the IC50 was 8.98 ± 0.57 µM and the inhibition at 50 µM was found to be 85.4%.

`CCOc1ccc(NC(=O)C(CC(C)C)NC(=O)C2CCC(C)CC2)cc1` (stereo not drawn) [Compound 34] yielded an IC50 of 6.12 ± 0.42 µM and an inhibition at 50 µM of 78.3%.

For `COc1ccc(NC(=O)c2ccccc2NC(=O)c2ccc([N+](=O)[O-])c(C)c2)cc1` [Compound 36], the IC50 was 4.47 ± 0.39 µM and 50 µM produced 81.9% inhibition.

The compound `COc1cc(-c2nc3cnccn3c2Nc2cccc(Cl)c2)ccc1O` [Compound 10] yielded an IC50 of 9.08 ± 0.56 µM and an inhibition at 50 µM of 78%.

Broadly, the IC50 is the concentration at which inhibition is half-maximal. Lower therefore signals greater potency in that assay. The inhibition is the drop in the measured response relative to a control, in per cent. Higher therefore signals a response far below the control.
